ChEMBL document CHEMBL3232866, “Design of novel potent antihyperlipidemic agents with antioxidant/anti-inflammatory properties: exploiting phenothiazine's strong antioxidant activity” (J Med Chem, 2014)
The source made the active and inactive calls. The calls are words filed in the database; no cut-off is given here.

Assays:
Mus musculus [1] = assay: Effect on food intake in chronic high-fat diet (2.5 w/w cholesterol, 0.5% w/w cholic acid, 10% w/w peanut oil) fed SKH-2 mouse at 56 umol/kg, ip bid for 30 days; type: ADME, organism-based; details: in vivo, 720 h
Mus musculus [2] = assay: Effect on body weight in chronic high-fat diet (2.5 w/w cholesterol, 0.5% w/w cholic acid, 10% w/w peanut oil) fed SKH-2 mouse at 56 umol/kg, ip bid for 30 days; type: ADME, organism-based; details: in vivo, 720 h
Mus musculus [3] = assay: Effect on blood glucose level in chronic high-fat diet (2.5 w/w cholesterol, 0.5% w/w cholic acid, 10% w/w peanut oil) fed SKH-2 mouse at 56 umol/kg, ip bid for 30 days; type: ADME, organism-based; details: in vivo, 720 h
Mus musculus [4] = assay: Antidyslipidemic activity in chronic high-fat diet (2.5 w/w cholesterol, 0.5% w/w cholic acid, 10% w/w peanut oil) fed SKH-2 mouse assessed as HDL/LDL ratio in plasma at 56 umol/kg, ip bid for 30 days measured on day 30 (reference value: 0.2 no unit); type: functional
[5] = Antioxidant activity in rat liver microsome membrane assessed as inhibition of lipid peroxidation after 45 mins by TBARS-based spectrophotometric assay; type: functional, microsomes
[6] = tested on: Radical scavenging activity; assay: Antioxidant activity assessed as DPPH radical scavenging activity up to 50 uM measured within 15 mins; type: functional
[7] = tested on: Radical scavenging activity; assay: Antioxidant activity assessed as DPPH radical scavenging activity after 30 mins; type: functional
[8] = biological target: T1, Squalene synthase (Rattus norvegicus) (UniProt Q02769); assay: (§1) Inhibition of squalene synthase in rat liver microsomes assessed as decrease in conversion of [3H]FPP to squalene
T1 sequence (whole entry): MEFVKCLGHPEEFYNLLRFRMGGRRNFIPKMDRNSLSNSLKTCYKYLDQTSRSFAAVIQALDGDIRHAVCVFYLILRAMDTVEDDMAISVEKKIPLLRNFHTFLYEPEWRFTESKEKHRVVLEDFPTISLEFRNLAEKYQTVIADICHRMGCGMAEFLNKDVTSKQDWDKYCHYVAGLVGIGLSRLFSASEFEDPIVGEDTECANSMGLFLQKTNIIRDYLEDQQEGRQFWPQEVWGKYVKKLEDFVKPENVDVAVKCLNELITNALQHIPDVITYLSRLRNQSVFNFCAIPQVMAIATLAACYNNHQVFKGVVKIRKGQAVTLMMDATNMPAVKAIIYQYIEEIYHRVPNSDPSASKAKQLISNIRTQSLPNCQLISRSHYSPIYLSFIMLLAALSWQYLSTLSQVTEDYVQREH

Squalene synthase = biological target: T2, Squalene synthase (Rattus norvegicus, UniProt Q02769); assay: as §1
T2 sequence (Q02769 whole entry): T1 sequence (whole entry)

[9] = biological target: T3, Prostaglandin G/H synthase 1 (Bos taurus) (UniProt O62664); assay: Inhibition of bovine COX-1 assessed as PGF2-alpha formation using arachidonic acid as substrate at 20 uM by enzyme immunoassay
T3 sequence (whole entry): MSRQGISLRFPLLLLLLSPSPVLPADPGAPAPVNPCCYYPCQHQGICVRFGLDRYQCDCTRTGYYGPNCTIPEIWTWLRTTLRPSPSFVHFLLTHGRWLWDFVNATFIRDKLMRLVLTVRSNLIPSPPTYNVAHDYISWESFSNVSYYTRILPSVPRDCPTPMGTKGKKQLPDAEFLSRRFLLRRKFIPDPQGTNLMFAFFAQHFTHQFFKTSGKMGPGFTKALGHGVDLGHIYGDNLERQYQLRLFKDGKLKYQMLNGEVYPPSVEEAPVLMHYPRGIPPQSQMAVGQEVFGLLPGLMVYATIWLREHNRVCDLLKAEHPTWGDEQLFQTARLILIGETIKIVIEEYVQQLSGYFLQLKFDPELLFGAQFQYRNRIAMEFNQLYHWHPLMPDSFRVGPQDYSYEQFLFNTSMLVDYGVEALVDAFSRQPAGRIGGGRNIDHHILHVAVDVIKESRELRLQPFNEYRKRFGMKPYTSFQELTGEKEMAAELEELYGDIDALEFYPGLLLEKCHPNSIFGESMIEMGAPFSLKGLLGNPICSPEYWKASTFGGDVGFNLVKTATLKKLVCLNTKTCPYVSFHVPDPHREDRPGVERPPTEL

Mus musculus [10] = assay: Antidyslipidemic activity in chronic high-fat diet (2.5 w/w cholesterol, 0.5% w/w cholic acid, 10% w/w peanut oil) fed SKH-2 mouse assessed as decrease in total cholesterol level in plasma at 56 umol/kg, ip bid for 21 days; type: functional; details: SKH-2, Plasma, 504 h
Mus musculus [11] = assay: Antidyslipidemic activity in chronic high-fat diet (2.5 w/w cholesterol, 0.5% w/w cholic acid, 10% w/w peanut oil) fed SKH-2 mouse assessed as decrease in LDL level in plasma at 56 umol/kg, ip bid for 21 days; type: functional; details: SKH-2, Plasma, 504 h
Mus musculus [12] = assay: Antidyslipidemic activity in chronic high-fat diet (2.5 w/w cholesterol, 0.5% w/w cholic acid, 10% w/w peanut oil) fed SKH-2 mouse assessed as increase in HDL level in plasma at 56 umol/kg, ip bid for 30 days measured on day 30 relative to control; type: functional
Mus musculus [13] = assay: Antidyslipidemic activity in chronic high-fat diet (2.5 w/w cholesterol, 0.5% w/w cholic acid, 10% w/w peanut oil) fed SKH-2 mouse assessed as increase in HDL level in plasma at 56 umol/kg, ip bid for 30 days measured on day 30 relative to day 0; type: functional

CN1CC(O)(c2ccc3c(c2)Nc2ccccc2S3)Sc2ccccc21 (centres undefined)
Activity (Mus musculus [1]): Non-toxic | Activity (Mus musculus [2]): Non-toxic | Activity (Mus musculus [3]): Non-toxic | Ratio (Mus musculus [4]): 1.3 | IC50 [5]: 0.98 µM | Activity [6]: Active | IC50 [7]: 77 µM | inhibition [8]: Dose-dependent effect | IC50 (Squalene synthase): 3.6 µM | inhibition [9]: 67% | inhibition in vivo at 56 µmol/kg (Mus musculus [10]): 48% | inhibition in vivo at 56 µmol/kg (Mus musculus [11]): 80% | Activity (Mus musculus [12]): 32% | Activity (Mus musculus [13]): 100%
